According to paper PMC6463727, “Rational design of a heterotrimeric G protein α subunit with artificial inhibitor sensitivity” (The Journal of Biological Chemistry, 2019):
Residue numbers refer to the chain shown, from its start. Numbered stars: 1 amine (or outer) side, 2 acyl side, 3 side chain; on linkers, the order of the positions; unused ones are H or OH. Bridge positions count the residues as written; N and C are the ends. Square brackets hold non-standard residues; d marks the D form. Peptide text beside a SMILES is read from it. X2 = CC(=O)NC(C(=O)OC(C(C)C)C(N[*:1])C(=O)[*:2])C(O)C(C)C; PhLac = O=C(O)[CH](O)Cc1ccccc1; NMeT = CN[CH](C(=O)O)[CH](C)O; NMeA = CN[CH](C)C(=O)O; NMeDha = C=C(NC)C(=O)O

Legend:
Assay in all cases: cell-based
Settings in all cases: read-out: YM pIC50 (converted)
[1] = target: T1, Gα16 (G16 WT) M187V (Homo sapiens, UniProt P30679, M187V); set-up: species or system HEK293 Gαq/Gα11-null (CRISPR/Cas9)
T1 construct: gene GNA15; human Gα16 cDNA in pcDNA3.1(+), expressed in CRISPR/Cas9 Gαq/Gα11-null HEK293 cells (transient); endogenous Gβγ
T1 sequence (P30679 1-374 M187V): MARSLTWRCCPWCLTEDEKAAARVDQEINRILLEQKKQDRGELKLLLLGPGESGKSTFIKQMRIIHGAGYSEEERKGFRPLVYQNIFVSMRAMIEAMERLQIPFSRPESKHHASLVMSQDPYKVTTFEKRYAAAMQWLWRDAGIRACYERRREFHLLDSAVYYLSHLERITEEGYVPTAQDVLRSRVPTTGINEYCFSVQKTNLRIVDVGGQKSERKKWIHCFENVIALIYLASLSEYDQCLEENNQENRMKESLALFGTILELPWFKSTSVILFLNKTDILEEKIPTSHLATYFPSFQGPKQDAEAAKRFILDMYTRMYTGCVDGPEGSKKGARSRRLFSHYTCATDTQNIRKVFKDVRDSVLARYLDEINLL
Procedure: (§1) Successful mutations were verified by DNA sequencing. Subconfluent cell cultures were transiently transfected with the respective expression plasmids using the polyethylenimine reagent (Polysciences, Warrington, PA) following the protocol provided by the manufacturer. All data were analyzed using GraphPad Prism 8.0.0 (GraphPad Inc., La Jolla, CA). Quantification of DMR signals was performed by calculation of the maximum responses. Data points from concentration-response or inhibition curves of individual functional experiments were fitted to the following four-parameter logistic function. (Eq. 1) Y=Bottom+(Top−Bottom)/1+10^(logEC50−x)slope Concentration-effect curves represented in figures were normalized by setting each experimental maximal effect as 100% response. All data are expressed as mean + or ± S.E. of at least three independent experiments performed in technical triplicates.

[2] = target: T2, Gα16 (G16 WT) C196P (Homo sapiens, UniProt P30679, C196P); set-up: species or system HEK293 Gαq/Gα11-null (CRISPR/Cas9)
T2 construct: gene GNA15; human Gα16 cDNA in pcDNA3.1(+), expressed in CRISPR/Cas9 Gαq/Gα11-null HEK293 cells (transient); endogenous Gβγ
T2 sequence (P30679 1-374 C196P): T1 sequence (P30679 1-374 M187V) with V187M, C196P
Procedure: as §1

[3] = target: T3, Gα16 (G16 WT) E74D (Homo sapiens, UniProt P30679, E74D); set-up: species or system HEK293 Gαq/Gα11-null (CRISPR/Cas9)
T3 construct: gene GNA15; human Gα16 cDNA in pcDNA3.1(+), expressed in CRISPR/Cas9 Gαq/Gα11-null HEK293 cells (transient); endogenous Gβγ
T3 sequence (P30679 1-374 E74D): T1 sequence (P30679 1-374 M187V) with E74D, V187M
Procedure: as §1

[4] = target: T4, Gα16 (G16 WT) S185V (Homo sapiens, UniProt P30679, S185V); set-up: species or system HEK293 Gαq/Gα11-null (CRISPR/Cas9), transfected Gα
T4 construct: gene GNA15; human Gα16 cDNA in pcDNA3.1(+), expressed in CRISPR/Cas9 Gαq/Gα11-null HEK293 cells (transient); endogenous Gβγ
T4 sequence (P30679 1-374 S185V): T1 sequence (P30679 1-374 M187V) with S185V, V187M
Procedure: Quantification of DMR signals was performed by calculation of the maximum responses. Data points from concentration-response or inhibition curves of individual functional experiments were fitted to the following four-parameter logistic function. (Eq. 1) Y=Bottom+(Top−Bottom)/1+10^(logEC50−x)slope Concentration-effect curves represented in figures were normalized by setting each experimental maximal effect as 100% response. All data are expressed as mean + or ± S.E. of at least three independent experiments performed in technical triplicates. […] Because none of our mutant proteins were […], we searched for additional residues that, when mutated, may incur activity loss for the two depsipeptides. We focused our attention on residues that (i) differed between Gαq and Gα16, (ii) were not addressed previously by mutagenesis, and (iii) were located on both linkers, including adjacent regions, to either directly interact with the depsipeptides (if side-chain or Gα atoms were within 5 Å to YM) or to be close enough to assist in stabilizing the inhibitor–protein interactions. Aspartate 71 (Asp-71) and valine 182 (Val-182) fulfilled these criteria (Fig. 3A; see also Fig. 2A): Asp-71 is part of an aspartic acid–arginine salt bridge that likely provides the interface between the depsipeptides and linker 1 by stabilizing and maintaining the inhibitor–linker 1 spacing (Fig. 3B). […]

## C=C1C(=O)NC(C)C(=O)N(C)C(C)C(=O)NC(C(OC(=O)C(NC(C)=O)C(O)C(C)C)C(C)C)C(=O)N(C)C(C(C)OC)C(=O)OC(C)C(NC(C)=O)C(=O)OC(Cc2ccccc2)C(=O)N1C (stereo not shown) [YM, YM-254890] (Ac-T[PhLac][NMeDha]A[NMeA][X2][NMeT](Me); ester 1-C; configuration not given here)
[1]
  IC50: > 1 mM
[2]
  IC50: > 1 mM
[3]
  IC50: > 1 mM
[4]
  IC50: ~316 µM
